Test results from PubChem BioAssay AID2060609 (Molecular Pharmacology Branch, DTP, NCI, 2025).

System: 855422-203-R-J1-PDC complex spheroids, viability
Test: Anticancer human tumor 855422-203-R-J1-PDC patient-derived bladder carcinoma cell line growth inhibition [CLK]
Conditions: for IC50: curve of first compound; for viability, T/C: stronger effect = lower value
In short: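 Multi-cell-type spheroids combined patient-derived tumor cells with HUVEC endothelial cells and human mesenchymal stem cells. Paired agents were dosed in half-log steps down from about clinical Cmax, or from 10 microM where Cmax was unknown.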

[1] = second compound 0.0316 µM, first compound 0.00949 µM
[2] = second compound 0.0316 µM, first compound 0.03 µM
[3] = second compound 0.0316 µM, first compound 0.0949 µM
[4] = second compound 0.0316 µM, first compound 0.3 µM
[5] = second compound 0.1 µM, first compound 0.00949 µM
[6] = second compound 0.1 µM, first compound 0.03 µM
[7] = second compound 0.1 µM, first compound 0.0949 µM
[8] = second compound 0.1 µM, first compound 0.3 µM
[9] = second compound 0.316 µM, first compound 0.00949 µM
[10] = second compound 0.316 µM, first compound 0.03 µM
[11] = second compound 0.316 µM, first compound 0.0949 µM
[12] = second compound 0.316 µM, first compound 0.3 µM
[13] = second compound 1 µM, first compound 0.00949 µM
[14] = second compound 1 µM, first compound 0.03 µM
[15] = second compound 1 µM, first compound 0.0949 µM
[16] = second compound 1 µM, first compound 0.3 µM
[17] = second compound 3.16 µM, first compound 0.00949 µM
[18] = second compound 3.16 µM, first compound 0.03 µM
[19] = second compound 3.16 µM, first compound 0.0949 µM
[20] = second compound 3.16 µM, first compound 0.3 µM
[21] = second compound 10 µM, first compound 0.00949 µM
[22] = second compound 10 µM, first compound 0.03 µM
[23] = second compound 10 µM, first compound 0.0949 µM
[24] = second compound 10 µM, first compound 0.3 µM
[25] = second compound 0.0316 µM, first compound 0.0316 µM
[26] = second compound 0.0316 µM, first compound 0.1 µM
[27] = second compound 0.0316 µM, first compound 0.316 µM
[28] = second compound 0.0316 µM, first compound 1 µM
[29] = second compound 0.0316 µM, first compound 3.16 µM
[30] = second compound 0.0316 µM, first compound 10 µM
[31] = second compound 0.1 µM, first compound 0.0316 µM
[32] = second compound 0.1 µM, first compound 0.1 µM
[33] = second compound 0.1 µM, first compound 0.316 µM
[34] = second compound 0.1 µM, first compound 1 µM
[35] = second compound 0.1 µM, first compound 3.16 µM
[36] = second compound 0.1 µM, first compound 10 µM
[37] = second compound 0.316 µM, first compound 0.0316 µM
[38] = second compound 0.316 µM, first compound 0.1 µM
[39] = second compound 0.316 µM, first compound 0.316 µM
[40] = second compound 0.316 µM, first compound 1 µM
[41] = second compound 0.316 µM, first compound 3.16 µM
[42] = second compound 0.316 µM, first compound 10 µM
[43] = second compound 1 µM, first compound 0.0316 µM
[44] = second compound 1 µM, first compound 0.1 µM
[45] = second compound 1 µM, first compound 0.316 µM
[46] = second compound 1 µM, first compound 1 µM
[47] = second compound 1 µM, first compound 3.16 µM
[48] = second compound 1 µM, first compound 10 µM
[49] = second compound 3.16 µM, first compound 0.0316 µM
[50] = second compound 3.16 µM, first compound 0.1 µM
[51] = second compound 3.16 µM, first compound 0.316 µM
[52] = second compound 3.16 µM, first compound 1 µM
[53] = second compound 3.16 µM, first compound 3.16 µM
[54] = second compound 3.16 µM, first compound 10 µM
[55] = second compound 10 µM, first compound 0.0316 µM
[56] = second compound 10 µM, first compound 0.1 µM
[57] = second compound 10 µM, first compound 0.316 µM
[58] = second compound 10 µM, first compound 1 µM
[59] = second compound 10 µM, first compound 3.16 µM
[60] = second compound 10 µM, first compound 10 µM
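Further: spheroids exposed to drugs for seven days before readout.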
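Wherever viability, T/C is given: 100% = DMSO vehicle control wells.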

C=CC(=O)Nc1cc(Nc2nccc(-c3cn(C)c4ccccc34)n2)c(OC)cc1N(C)CCN(C)C + CN1CCN(c2cc(C(=O)Nc3cc4cc(-c5cnn(C)c5)ccc4cn3)ccn2)CC1
IC50 (second compound 0.0316 µM): > 300 nM
IC50 (second compound 0.1 µM): > 300 nM
IC50 (second compound 0.316 µM): < 0.949 nM
IC50 (second compound 1 µM): < 0.949 nM
IC50 (second compound 3.16 µM): < 0.949 nM
IC50 (second compound 10 µM): < 0.949 nM
viability, T/C (second compound 0.0316 µM, first compound 0.000949 µM): 104%
viability, T/C (second compound 0.0316 µM, first compound 0.003 µM): 88.3%
viability, T/C [1]: 112%
viability, T/C [2]: 102%
viability, T/C [3]: 97.6%
viability, T/C [4]: 91.4%
viability, T/C (second compound 0.1 µM, first compound 0.000949 µM): 79.1%
viability, T/C (second compound 0.1 µM, first compound 0.003 µM): 80.4%
viability, T/C [5]: 85.8%
viability, T/C [6]: 91.7%
viability, T/C [7]: 74.8%
viability, T/C [8]: 64.5%
viability, T/C (second compound 0.316 µM, first compound 0.000949 µM): 7.04%
viability, T/C (second compound 0.316 µM, first compound 0.003 µM): 9.27%
viability, T/C [9]: 8.35%
viability, T/C [10]: 11.4%
viability, T/C [11]: 8.34%
viability, T/C [12]: 7.28%
viability, T/C (second compound 1 µM, first compound 0.000949 µM): 0.18%
viability, T/C (second compound 1 µM, first compound 0.003 µM): 0.31%
viability, T/C [13]: 0.54%
viability, T/C [14]: 0.25%
viability, T/C [15]: 1.14%
viability, T/C [16]: 0.46%
viability, T/C (second compound 3.16 µM, first compound 0.000949 µM): 0.7%
viability, T/C (second compound 3.16 µM, first compound 0.003 µM): 0.52%
viability, T/C [17]: 0.64%
viability, T/C [18]: 0.46%
viability, T/C [19]: 0.68%
viability, T/C [20]: 0.93%
viability, T/C (second compound 10 µM, first compound 0.000949 µM): 0.4%
viability, T/C (second compound 10 µM, first compound 0.003 µM): 1.47%
viability, T/C [21]: 0.52%
viability, T/C [22]: 0.85%
viability, T/C [23]: 0.58%
viability, T/C [24]: 0.28%

CC1(C)CCC(CN2CCN(c3ccc(C(=O)NS(=O)(=O)c4ccc(NCC5CCOCC5)c([N+](=O)[O-])c4)c(Oc4cnc5[nH]ccc5c4)c3)CC2)=C(c2ccc(Cl)cc2)C1 + CN1CCN(c2cc(C(=O)Nc3cc4cc(-c5cnn(C)c5)ccc4cn3)ccn2)CC1
IC50 (second compound 0.0316 µM): 6060 nM
IC50 (second compound 0.1 µM): 5320 nM
IC50 (second compound 0.316 µM): < 31.6 nM
IC50 (second compound 1 µM): < 31.6 nM
IC50 (second compound 3.16 µM): < 31.6 nM
IC50 (second compound 10 µM): < 31.6 nM
viability, T/C [25]: 97.3%
viability, T/C [26]: 96.2%
viability, T/C [27]: 115%
viability, T/C [28]: 116%
viability, T/C [29]: 137%
viability, T/C [30]: 1.97%
viability, T/C [31]: 85.1%
viability, T/C [32]: 81.9%
viability, T/C [33]: 104%
viability, T/C [34]: 88.2%
viability, T/C [35]: 93%
viability, T/C [36]: 1.08%
viability, T/C [37]: 10.7%
viability, T/C [38]: 11.8%
viability, T/C [39]: 8.68%
viability, T/C [40]: 10.2%
viability, T/C [41]: 10.3%
viability, T/C [42]: 0.47%
viability, T/C [43]: 0.26%
viability, T/C [44]: 0.89%
viability, T/C [45]: 0.24%
viability, T/C [46]: 0.46%
viability, T/C [47]: 0.51%
viability, T/C [48]: 0.11%
viability, T/C [49]: 0.63%
viability, T/C [50]: 2.77%
viability, T/C [51]: 0.71%
viability, T/C [52]: 0.87%
viability, T/C [53]: 1.82%
viability, T/C [54]: 1.58%
viability, T/C [55]: 0.52%
viability, T/C [56]: 0.31%
viability, T/C [57]: 0.36%
viability, T/C [58]: 0.45%
viability, T/C [59]: 0.29%
viability, T/C [60]: 0.25%

NC(=O)C(=Cn1cnc(-c2cc(C(F)(F)F)cc(C(F)(F)F)c2)n1)c1cncnc1 + CN1CCN(c2cc(C(=O)Nc3cc4cc(-c5cnn(C)c5)ccc4cn3)ccn2)CC1
IC50 (second compound 0.0316 µM): 70.6 nM
IC50 (second compound 0.1 µM): 52.3 nM
IC50 (second compound 0.316 µM): < 9.49 nM
IC50 (second compound 1 µM): < 9.49 nM
IC50 (second compound 3.16 µM): < 9.49 nM
IC50 (second compound 10 µM): < 9.49 nM
viability, T/C [1]: 137%
viability, T/C [2]: 122%
viability, T/C [3]: 25.1%
viability, T/C [4]: 5.66%
viability, T/C (second compound 0.0316 µM, first compound 0.949 µM): 6%
viability, T/C (second compound 0.0316 µM, first compound 3 µM): 1.88%
viability, T/C [5]: 82.6%
viability, T/C [6]: 90.1%
viability, T/C [7]: 11.2%
viability, T/C [8]: 2.07%
viability, T/C (second compound 0.1 µM, first compound 0.949 µM): 3.91%
viability, T/C (second compound 0.1 µM, first compound 3 µM): 0.25%
viability, T/C [9]: 2.6%
viability, T/C [10]: 1.37%
viability, T/C [11]: 1.48%
viability, T/C [12]: 0.21%
viability, T/C (second compound 0.316 µM, first compound 0.949 µM): 0.13%
viability, T/C (second compound 0.316 µM, first compound 3 µM): 0.05%
viability, T/C [13]: 0.15%
viability, T/C [14]: 0.76%
viability, T/C [15]: 0.42%
viability, T/C [16]: 0.21%
viability, T/C (second compound 1 µM, first compound 0.949 µM): 0.71%
viability, T/C (second compound 1 µM, first compound 3 µM): 0.05%
viability, T/C [17]: 0.27%
viability, T/C [18]: 0.21%
viability, T/C [19]: 0.42%
viability, T/C [20]: 0.13%
viability, T/C (second compound 3.16 µM, first compound 0.949 µM): 0.22%
viability, T/C (second compound 3.16 µM, first compound 3 µM): 0.09%
viability, T/C [21]: 0.14%
viability, T/C [22]: 0.09%
viability, T/C [23]: 0.34%
viability, T/C [24]: 0.23%
viability, T/C (second compound 10 µM, first compound 0.949 µM): 0.6%
viability, T/C (second compound 10 µM, first compound 3 µM): 0.2%

Nc1ccccc1NC(=O)c1ccc(CNC(=O)OCc2cccnc2)cc1 + CN1CCN(c2cc(C(=O)Nc3cc4cc(-c5cnn(C)c5)ccc4cn3)ccn2)CC1
IC50 (second compound 0.0316 µM): 846 nM
IC50 (second compound 0.1 µM): 486 nM
IC50 (second compound 0.316 µM): < 31.6 nM
IC50 (second compound 1 µM): < 31.6 nM
IC50 (second compound 3.16 µM): < 31.6 nM
IC50 (second compound 10 µM): < 31.6 nM
viability, T/C [25]: 87%
viability, T/C [26]: 72.8%
viability, T/C [27]: 68.8%
viability, T/C [28]: 49%
viability, T/C [29]: 19.2%
viability, T/C [30]: 0.56%
viability, T/C [31]: 65.2%
viability, T/C [32]: 75.4%
viability, T/C [33]: 58.4%
viability, T/C [34]: 33%
viability, T/C [35]: 10.7%
viability, T/C [36]: 0.05%
viability, T/C [37]: 5.43%
viability, T/C [38]: 5.82%
viability, T/C [39]: 9.34%
viability, T/C [40]: 3.91%
viability, T/C [41]: 0.28%
viability, T/C [42]: 0.06%
viability, T/C [43]: 0.15%
viability, T/C [44]: 0.19%
viability, T/C [45]: 0.13%
viability, T/C [46]: 0.09%
viability, T/C [47]: 0.12%
viability, T/C [48]: 0.09%
viability, T/C [49]: 0.53%
viability, T/C [50]: 1.31%
viability, T/C [51]: 0.28%
viability, T/C [52]: 0.49%
viability, T/C [53]: 0.96%
viability, T/C [54]: 0.28%
viability, T/C [55]: 0.2%
viability, T/C [56]: 0.34%
viability, T/C [57]: 0.42%
viability, T/C [58]: 0.36%
viability, T/C [59]: 0.31%
viability, T/C [60]: 0.24%
